Measured values taken from patent publication US11524006B2, “Crenolanib for treating TRK kinase associated proliferative disorders” (Arog Pharmaceuticals, Inc., priority 2020, dated 2022).

Columns and labels:
[1] = tested on: TRK fusion positive cancers; details: cited from earlier work
[2] = target: T1, TRKC-L686M (Homo sapiens, UniProt Q16288, L686M); assay: Reaction Biology HotSpot Kinase assay, direct enzyme phosphorylation; assay type: biochemical; details: Other Mutant TRKC-L686M
T1 construct: purchased Reaction Biology (HotSpot Kinase assay panel)
T1 sequence (Q16288 32-839 L686M): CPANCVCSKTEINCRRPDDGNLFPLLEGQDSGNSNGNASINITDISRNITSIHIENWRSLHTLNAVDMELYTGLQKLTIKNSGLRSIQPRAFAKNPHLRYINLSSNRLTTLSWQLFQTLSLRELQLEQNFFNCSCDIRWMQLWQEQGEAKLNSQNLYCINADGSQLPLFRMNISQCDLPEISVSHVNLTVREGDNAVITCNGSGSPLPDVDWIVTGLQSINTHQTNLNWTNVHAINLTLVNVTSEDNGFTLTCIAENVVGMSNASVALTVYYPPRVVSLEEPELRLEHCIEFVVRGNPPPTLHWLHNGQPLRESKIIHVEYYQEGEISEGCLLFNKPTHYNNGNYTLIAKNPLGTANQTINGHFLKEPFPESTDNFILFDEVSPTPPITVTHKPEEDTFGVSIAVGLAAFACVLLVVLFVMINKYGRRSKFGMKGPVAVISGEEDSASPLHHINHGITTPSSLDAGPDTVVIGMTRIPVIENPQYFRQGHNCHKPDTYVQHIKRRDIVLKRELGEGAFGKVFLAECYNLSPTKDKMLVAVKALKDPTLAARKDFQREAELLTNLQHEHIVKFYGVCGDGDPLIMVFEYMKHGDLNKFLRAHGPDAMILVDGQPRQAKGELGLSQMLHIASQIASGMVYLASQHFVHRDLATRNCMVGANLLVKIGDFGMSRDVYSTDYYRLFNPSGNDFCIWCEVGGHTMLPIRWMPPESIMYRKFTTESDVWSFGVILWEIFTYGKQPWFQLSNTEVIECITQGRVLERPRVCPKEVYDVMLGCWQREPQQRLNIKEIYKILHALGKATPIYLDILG
Experimental: (§1) Direct enzyme phosphorylation assay. The Reaction Biology HotSpot Kinase assay was used to screen the present invention against a panel of normal TRKA, TRKB, and TRKC and mutated TRK kinases. For assays of all kinases, the TRK enzyme was prepared in base reaction buffer (20 mM Hepes (pH 7.5), 10 mM MgCl2, 1 mM EGTA, 0.02% Brij35, 0.02 mg/ml BSA, 0.1 mM Na3VO4, 2 mM DTT, 1% DMSO). The reaction was initiated by the addition of 33P-ATP (10 μCi/μL) into the mixture. The reaction mixture was incubated for 120 minutes at room temperature. Radioactivity was detected by filter-binding method, and kinase activity expressed as the percent remaining kinase activity in test samples compared to vehicle reactions. IC50 values and curve fitting were obtained using Prism (GraphPad Software).
(§2) The activity of the besylate salt of the present invention was determined using a direct enzymatic Reaction Biology HotSpot Kinase assay. All IC50 values are presented in nanomolar concentration. In the direct enzymatic measurement assay, the IC50 of the besylate salt of the current invention against the various TRK kinases is shown in Table 1.

[3] = target: T2, TRKA-TFG (Homo sapiens, UniProt P04629); assay: as above; assay type: biochemical; details: Fusion TRKA-TFG
T2 construct: partner gene encoding one or more dimerization domains with the tyrosine kinase domains of one of the TRK genes; TFG (fusion partner); purchased Reaction Biology (HotSpot Kinase assay panel); the other entry of the earlier key: TFG (Q92734, Protein TFG)
T2 sequence (P04629 with tags, fused parts or gaps): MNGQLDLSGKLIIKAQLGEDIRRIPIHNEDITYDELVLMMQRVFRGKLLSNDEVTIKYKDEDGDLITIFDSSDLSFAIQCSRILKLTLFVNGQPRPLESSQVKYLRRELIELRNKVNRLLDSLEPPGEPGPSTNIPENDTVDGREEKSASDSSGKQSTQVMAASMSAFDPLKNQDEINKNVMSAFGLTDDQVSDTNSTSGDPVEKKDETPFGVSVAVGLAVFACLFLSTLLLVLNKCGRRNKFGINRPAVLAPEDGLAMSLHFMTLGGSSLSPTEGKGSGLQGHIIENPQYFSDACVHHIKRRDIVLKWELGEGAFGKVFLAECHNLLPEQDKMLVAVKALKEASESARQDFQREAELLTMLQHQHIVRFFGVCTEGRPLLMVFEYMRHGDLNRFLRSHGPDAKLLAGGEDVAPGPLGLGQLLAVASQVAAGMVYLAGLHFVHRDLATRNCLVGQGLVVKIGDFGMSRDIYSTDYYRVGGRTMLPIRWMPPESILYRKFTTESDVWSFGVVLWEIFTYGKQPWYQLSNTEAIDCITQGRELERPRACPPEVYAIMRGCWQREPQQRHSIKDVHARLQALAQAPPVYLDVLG
Experimental: as §1, §2

[4] = target: T3, TRKA-G667S (Homo sapiens, UniProt P04629, G667S); assay: as above; assay type: biochemical; details: xDFG Mutant TRKA-G667S
T3 construct: purchased Reaction Biology (HotSpot Kinase assay panel)
T3 sequence (P04629 33-796 G667S): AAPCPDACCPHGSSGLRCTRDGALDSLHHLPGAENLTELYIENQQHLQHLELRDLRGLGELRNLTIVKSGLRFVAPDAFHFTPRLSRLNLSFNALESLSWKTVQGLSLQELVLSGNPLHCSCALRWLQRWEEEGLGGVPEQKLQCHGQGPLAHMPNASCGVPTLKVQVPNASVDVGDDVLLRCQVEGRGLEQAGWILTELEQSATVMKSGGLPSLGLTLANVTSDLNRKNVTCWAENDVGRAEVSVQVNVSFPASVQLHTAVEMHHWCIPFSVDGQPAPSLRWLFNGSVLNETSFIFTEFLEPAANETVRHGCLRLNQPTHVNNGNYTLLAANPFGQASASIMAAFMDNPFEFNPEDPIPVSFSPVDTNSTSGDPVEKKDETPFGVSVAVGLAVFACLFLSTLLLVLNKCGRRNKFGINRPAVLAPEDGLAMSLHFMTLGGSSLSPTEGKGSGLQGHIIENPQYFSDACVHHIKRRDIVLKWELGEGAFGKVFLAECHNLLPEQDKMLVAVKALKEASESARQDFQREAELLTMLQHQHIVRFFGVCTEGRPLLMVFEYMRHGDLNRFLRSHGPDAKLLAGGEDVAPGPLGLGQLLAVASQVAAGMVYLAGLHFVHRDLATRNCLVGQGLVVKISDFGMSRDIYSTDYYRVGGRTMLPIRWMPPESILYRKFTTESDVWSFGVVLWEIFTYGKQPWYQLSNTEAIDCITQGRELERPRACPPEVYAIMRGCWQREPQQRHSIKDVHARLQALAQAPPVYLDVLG
Experimental: as §1, §2

[5] = target: T4, TRKA-TPM3 (Homo sapiens, UniProt P04629); assay: as above; assay type: biochemical; details: Fusion TRKA-TPM3
T4 construct: fused on or other part: N-terminal part of tropomyosin 3 (coiled-coil dimerisation part); P06753 (Tropomyosin alpha-3 chain)
T4 sequence (P04629 510-796 limits assumed): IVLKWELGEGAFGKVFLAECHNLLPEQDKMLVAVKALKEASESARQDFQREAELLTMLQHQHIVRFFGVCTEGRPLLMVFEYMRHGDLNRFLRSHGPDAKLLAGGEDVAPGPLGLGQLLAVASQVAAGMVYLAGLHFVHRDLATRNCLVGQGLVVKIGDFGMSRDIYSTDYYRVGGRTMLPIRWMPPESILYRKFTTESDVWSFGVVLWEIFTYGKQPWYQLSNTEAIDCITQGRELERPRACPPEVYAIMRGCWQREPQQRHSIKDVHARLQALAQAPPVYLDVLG
Experimental: as §1, §2

[6] = target: T5, TRKA-A608D (Homo sapiens, UniProt P04629, A608D); assay: as above; assay type: biochemical; details: Other Mutant TRKA-A608D
T5 construct: purchased Reaction Biology (HotSpot Kinase assay panel)
T5 sequence (P04629 33-796 A608D): as the sequence (P04629 33-796 G667S) above, with A576D, S635G counted along it
Experimental: as §1, §2

[7] = target: T6, TRKA-G667C (Homo sapiens, UniProt P04629, G667C); assay: as above; assay type: biochemical; details: xDFG Mutant TRKA-G667C
T6 construct: purchased Reaction Biology (HotSpot Kinase assay panel)
T6 sequence (P04629 33-796 G667C): as the sequence (P04629 33-796 G667S) above, with S635C counted along it
Experimental: as §1, §2

[8] = target: T7, TRKA-TPR (Homo sapiens, UniProt P04629); assay: as above; assay type: biochemical; details: Fusion TRKA-TPR
T7 construct: fused on or other part: N-terminal coiled-coil part of TPR (translocated promoter region protein); P12270 (Nucleoprotein TPR)
T7 sequence (P04629 510-796 limits assumed): as the sequence (P04629 510-796 limits assumed) above
Experimental: as §1, §2

[9] = target: T8, TRKA-L657M (Homo sapiens, UniProt P04629, L657M); assay: as above; assay type: biochemical; details: Other Mutant TRKA-L657M
T8 construct: purchased Reaction Biology (HotSpot Kinase assay panel)
T8 sequence (P04629 33-796 L657M): as the sequence (P04629 33-796 G667S) above, with L625M, S635G counted along it
Experimental: as §1, §2

[10] = target: T9, TRKC-G696A (Homo sapiens, UniProt Q16288, G696A); assay: as above; assay type: biochemical; details: xDFG Mutant TRKC-G696A
T9 construct: purchased Reaction Biology (HotSpot Kinase assay panel)
T9 sequence (Q16288 32-839 G696A): as the sequence (Q16288 32-839 L686M) above, with M655L, G665A counted along it
Experimental: as §1, §2

O=C(Nc1cnn2ccc(N3CCC[C@@H]3c3cc(F)ccc3F)nc12)N1CC[C@H](O)C1 [Larotrectinib]
clinical response in assessed patients ([1]; assessed patients): 75% | patients progressed within 1 year ([1]; within 1 year): 45%

CC1(COc2ccc3c(c2)ncn3-c2ccc3cccc(N4CCC(N)CC4)c3n2)COC1 [crenolanib besylate, Crenolanib Besylate]
IC50 [2]: 184 nM | IC50 [3]: 3.95 nM | IC50 [4]: 4.52 nM | IC50 [5]: 4.34 nM | IC50 [6]: 38.7 nM | IC50 [7]: 5 nM | IC50 [8]: 3.98 nM | IC50 [9]: 79.7 nM | IC50 [10]: 5.69 nM
